In ChEMBL document CHEMBL3430912, “GSK Tres Cantos Anti-Kinetoplastid Screening (TCAKS) Data”:

Assays:
Trypanosoma cruzi [1] = assay: GSK_TCAKS: pIC50 Trypanosoma cruzi viability assay using beta-GAL activity. This assay was run at single shot at 5uM compound concentration per well. The biological reagents consisted of NIH-3T3 host cells and trypomastigotes parasitic cells; both cell types were set to a 3.3 * 10^5 cells/mL dilution in assay DMEM by means of a CASY cell counter device using a 60um capillary. 6 uL of the mixture were dispensed per well (about 1 * 10^3 host-cells and 1 * 10^3 parasites) with a Multidrop Combi dispenser. […] In all wells, the percentage of DMSO never exceeded 0.5%. Plates incubated for four days at 37C, 5% CO2. The substrate used for the assay fluorescence intensity (FLINT) readout was resorufin-beta-D-galactopiranoside (Sigma-Aldrich) at 5uM per well. It was diluted in PBS supplemented with the soft detergent Igepal (Fluka).; format: functional, organism-based, Mus musculus; details: Tulahuen, NIH3T3
Trypanosoma cruzi [2] = assay: GSK_TCAKS: pIC50 Trypanosoma cruzi Imaging: Amastigotes/Cell. […] Cells were then washed once with PBS before infection. T. cruzi trypomastigotes, collected at days 5 to 8 after infection from LLC-MK2 parasite infected cultures, were allowed to swim out for 4h at 37C from a centrifuged pellet (2,500 rpm/10 min/room temperature). Trypomastigotes were then collected and counted in a CASY Cell Counter. Trypomastigotes, in supplemented DMEM, were added to H9c2 cultures in a multiplicity of infection of 1 and incubated for 18 h. Cells were washed once with PBS before incubation of the infected H9c2 monolayer with trypsin (Life-Technologies) to detach cells from the flask. Cells were counted in a CASY Cell Counter using a 150 um capillary and their density set at 5 * 10^4 cells per mL in supplemented assay DMEM. Infected H9c2 were dispensed into 384-well poly-lysine coated assay plates at 50uL per well using a Multidrop Combi dispenser. After seeding them, the plates were incubated at 37C, 5% CO2 for 72h. Cultures were then fixed and stained by addition of 50 uL of a solution containing 8% formaldehyde and 4 uM DRAQ5 DNA dye (BioStatus, UK) per well. […] Five images were collected per well for reliable statistical analysis. Automated image analysis was performed with a script developed on Acapella High Content Imaging and Analysis Software (PerkinElmer). Output: number of amastigotes per cell as infection level measurement.; format: functional, organism-based, Rattus norvegicus; details: H9c2, 4 h
Leishmania donovani [3] = assay: (§1) GSK_TCAKS: pIC50 Leishmania donovani Imaging: THP-1 Host Macrophages. Assay plates (384-well) were prepared by adding 250nL of compound to each well. For single shot assay, the final compound concentration was 5 uM. […] Automated image analysis was performed with a script developed on Acapella High Content Imaging and Analysis Software (PerkinElmer). Output: THP-1 cell count were reported for each well.; format: functional, organism-based, Homo sapiens
[4] = target: Sterol 14-alpha demethylase (Trypanosoma cruzi (strain CL Brener), UniProt Q7Z1V1); assay: GSK_TCAKS: pIC50 CYP51 from Trypanosoma cruzi.; format: functional
Chain of Sterol 14-alpha demethylase (Q7Z1V1 whole entry): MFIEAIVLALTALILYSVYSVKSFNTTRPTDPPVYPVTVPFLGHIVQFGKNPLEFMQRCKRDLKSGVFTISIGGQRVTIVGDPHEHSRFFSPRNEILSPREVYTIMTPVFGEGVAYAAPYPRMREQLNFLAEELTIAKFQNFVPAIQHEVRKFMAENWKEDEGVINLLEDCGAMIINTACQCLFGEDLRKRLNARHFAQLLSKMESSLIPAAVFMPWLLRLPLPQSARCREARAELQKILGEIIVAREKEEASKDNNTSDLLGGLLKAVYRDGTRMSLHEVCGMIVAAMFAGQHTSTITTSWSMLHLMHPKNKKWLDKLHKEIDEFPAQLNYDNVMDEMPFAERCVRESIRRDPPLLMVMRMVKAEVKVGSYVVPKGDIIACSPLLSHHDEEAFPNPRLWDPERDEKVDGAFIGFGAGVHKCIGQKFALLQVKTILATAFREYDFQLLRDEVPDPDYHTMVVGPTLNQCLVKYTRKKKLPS

NIH3T3 = assay: GSK_TCAKS: pIC50 NIH 3T3 cell line viability assay using luminiscence. Tissue culture surface treated assay plates (1536-well) were used. […] The 100% cells survival control was determined exposing the host-cells to a 0.5% DMSO concentration, whereas the 100% toxicity control was achieved by seeding the cells in presence of Amphotericin B at 50uM. Plates were incubated for four days at 37C, 5% CO2. The assay readout was developed by addition of 5uL of CellTiter-Glo Reagent following the manufacturer's instructions. Luminiscence was measured using a ViewLux.; format: functional, cell-based; details: Mus musculus, NIH3T3, 96 h
Trypanosoma cruzi [5] = assay: (§2) GSK_TCAKS: pIC50 Trypanosoma cruzi Imaging: Infected Cells. […] Cells were then washed once with PBS before infection. T. cruzi trypomastigotes, collected at days 5 to 8 after infection from LLC-MK2 parasite infected cultures, were allowed to swim out for 4h at 37C from a centrifuged pellet (2,500 rpm/10 min/room temperature). Trypomastigotes were then collected and counted in a CASY Cell Counter. Trypomastigotes, in supplemented DMEM, were added to H9c2 cultures in a multiplicity of infection of 1 and incubated for 18 h. Cells were washed once with PBS before incubation of the infected H9c2 monolayer with trypsin (Life-Technologies) to detach cells from the flask. Cells were counted in a CASY Cell Counter using a 150 um capillary and their density set at 5 * 10^4 cells per mL in supplemented assay DMEM. Infected H9c2 were dispensed into 384-well poly-lysine coated assay plates at 50uL per well using a Multidrop Combi dispenser. After seeding them, the plates were incubated at 37C, 5% CO2 for 72h. Cultures were then fixed and stained by addition of 50 uL of a solution containing 8% formaldehyde and 4 uM DRAQ5 DNA dye (BioStatus, UK) per well. […] Five images were collected per well for reliable statistical analysis. Automated image analysis was performed with a script developed on Acapella High Content Imaging and Analysis Software (PerkinElmer). Output: percentage of infected cells per well as a second infection marker.; format: functional, organism-based, Rattus norvegicus; details: H9c2, 4 h
[6] = GSK_TCAKS: pIC50 HepG2 human cell line viability assay using luminiscence. […] Seeding density was checked to ensure that new mono-layers were not more than 50% confluent at the time of harvesting. Cell suspension was added to 500 mL of the same medium at a final density of 1.2 * 10^5 cells/mL. This cell suspension was dispensed (25 uL, 3000 cells per well) into 384-well clear-bottom plates using a Multidrop Combi dispenser. Prior to addition of the cell suspension, the screening compounds (250 nL) were pre-dispensed into the plates with an Echo liquid handler. Plates were incubated for 48 h at 37C, 5% CO2. After incubation, plates equilibrated at room temperature for 30 min before proceeding to develop the luminescent signal. The signal developer, CellTiter-Glo Reagent, was allowed to equilibrate at room temperature for 30 min and added to the plates (25uL per well) using a Multidrop Combi dispenser. Plates were left for 10 min at room temperature for stabilization and then read using a ViewLux.; format: toxicity, cell-based
[7] = test system: Trypanosoma brucei brucei; assay: GSK_TCAKS: pIC50 Trypanosoma brucei viability assay using fluorescence intensity. Assay plates (1536-well) were prepared by dispensing 25nL of compound solution per well using an Echo acoustic dispenser (Labcyte).; format: functional, organism-based; details: Lister 427, 2 h
[8] = test system: Trypanosoma brucei brucei; assay: GSK_TCAKS: pIC50 Trypanosoma brucei viability assay using luminiscence. Assay plates (1536-well) were prepared. T. brucei cultures were harvested and counted in a CASY cell counter. A parasite suspension was prepared at a final concentration of 5 * 10^4 cells/mL in complete HMI9 medium and 6uL was dispensed to all wells containing compounds using a Multidrop Combi dispenser. 6uL of HMI9 media with 0.4% DMSO were dispensed to control columns. Plates were incubated for 24 h at 37C, 5% CO2 then tempered for 10 min at room temperature. ATP content was quantified by adding 4 uL of CellTiter-Glo Reagent (Promega) according to the manufacturer's instructions. Luminescence was measured using a ViewLux.; format: functional, organism-based; details: Lister 427, CASY
Leishmania donovani [9] = assay: GSK_TCAKS: pIC50 Leishmania donovani viability assay using fluorescence intensity. Assay plates (1536-well) were prepared by adding 30nL per well of compound. For single shot assay, the final compound concentration was 5uM. […] Briefly, eGFP LdBOB axenic amastigotes were harvested, fixed and counted in a CASY cell counter (Roche-Applied Science). A final concentration of 1.5 * 10^5 cells per well were prepared in amastigote media containing 500 U/mL penicillin/streptomycin (Invitrogen) and 6uL was dispensed to each experimental well using a Multidrop Combi dispenser (Thermo Scientific). 6uL of assay media was dispensed to control columns used as reference for 100% compound response. Following incubation for 72 h at 37C, 5% CO2, 2 uL of resazurin was added to each well at a final concentration of 0.5 mM in phosphate buffered saline (PBS) with IGEPAL (Sigma-Aldrich), 0.05% (v/v).; format: functional, organism-based
Leishmania donovani [10] = assay: as §1, with “Infected” for “THP-1 Host”, “Percent of infected macrophage cells” for “THP-1 cell count”; format: functional, organism-based, Homo sapiens; details: THP-1
Trypanosoma cruzi [11] = assay: as §2, with “H2C9” for “Trypanosoma cruzi”, “H9c2 Host Cardiomyocytes.” for “Infected Cells.”, “Number” for “percentage”, “H9c2 Host Cardiomyocytes nuclei to determine drug-related cytotoxicity.” for “infected cells per well as a second infection marker.”; format: functional, organism-based, Rattus norvegicus; details: H9c2, 4 h
Leishmania donovani [12] = assay: as §1, with “Amastigotes/Macrophages.” for “THP-1 Host Macrophages.”, “Average number of amastigotes per macrophage” for “THP-1”, “cell” for “cell count”; format: functional, organism-based, Homo sapiens; details: THP-1

c1ccc2c(CCOc3nccnc3-c3ccncc3)c[nH]c2c1
IC50 (Trypanosoma cruzi [1]): 0.141 µM | IC50 (Trypanosoma cruzi [2]): 0.158 µM | IC50 (Leishmania donovani [3]): 20 µM | IC50 [4]: 0.0631 µM | IC50 (NIH3T3): 20 µM | IC50 (Trypanosoma cruzi [5]): 0.158 µM | IC50 at 48 h [6]: > 100 µM | IC50 [7]: 31.6 µM | IC50 [8]: 39.8 µM | IC50 (Leishmania donovani [9]): 5.01 µM | IC50 (Leishmania donovani [10]): > 50.1 µM | IC50 (Trypanosoma cruzi [11]): > 50.1 µM | IC50 (Leishmania donovani [12]): 20 µM

O=C(Nc1ccc(Br)c(Cl)c1)Nc1ccc2c(c1)OCO2
IC50 (Trypanosoma cruzi [1]): 2.51 µM | IC50 (Trypanosoma cruzi [2]): 2 µM | IC50 (Leishmania donovani [3]): > 50.1 µM | IC50 [4]: > 100 µM | IC50 (NIH3T3): 15.8 µM | IC50 (Trypanosoma cruzi [5]): 5.01 µM | IC50 at 48 h [6]: > 100 µM | IC50 [7]: 7.94 µM | IC50 [8]: 12.6 µM | IC50 (Leishmania donovani [9]): > 50.1 µM | IC50 (Leishmania donovani [10]): > 50.1 µM | IC50 (Trypanosoma cruzi [11]): > 50.1 µM | IC50 (Leishmania donovani [12]): > 50.1 µM

Clc1cc(Br)ccc1OCCCCn1ccnc1
IC50 (Trypanosoma cruzi [1]): 0.631 µM | IC50 (Trypanosoma cruzi [2]): 0.316 µM | IC50 (Leishmania donovani [3]): 31.6 µM | IC50 [4]: 0.0631 µM | IC50 (NIH3T3): 15.8 µM | IC50 (Trypanosoma cruzi [5]): 0.251 µM | IC50 at 48 h [6]: 50.1 µM | IC50 [7]: 10 µM | IC50 [8]: 20 µM | IC50 (Leishmania donovani [9]): 0.126 µM | IC50 (Leishmania donovani [10]): 25.1 µM | IC50 (Trypanosoma cruzi [11]): 25.1 µM | IC50 (Leishmania donovani [12]): 6.31 µM

COc1cccc(C(=O)[C@H]2C[C@@H]2CN(Cc2cccnc2)Cc2cccnc2)c1
IC50 (Trypanosoma cruzi [1]): 0.1 µM | IC50 (Trypanosoma cruzi [2]): 0.0501 µM | IC50 (Leishmania donovani [3]): 39.8 µM | IC50 [4]: 0.0631 µM | IC50 (NIH3T3): 20 µM | IC50 (Trypanosoma cruzi [5]): 0.0631 µM | IC50 at 48 h [6]: > 100 µM | IC50 [7]: 31.6 µM | IC50 [8]: > 39.8 µM | IC50 (Leishmania donovani [9]): 0.158 µM | IC50 (Leishmania donovani [10]): > 50.1 µM | IC50 (Trypanosoma cruzi [11]): > 50.1 µM | IC50 (Leishmania donovani [12]): 7.94 µM

NC(=O)c1ccc(-c2cccc(OCCN3CCN(C4CCCCC4)CC3)c2)cc1
IC50 (Trypanosoma cruzi [1]): 1.58 µM | IC50 (Trypanosoma cruzi [2]): 0.794 µM | IC50 (Leishmania donovani [3]): 31.6 µM | IC50 [4]: 39.8 µM | IC50 (NIH3T3): 15.8 µM | IC50 (Trypanosoma cruzi [5]): 1.58 µM | IC50 at 48 h [6]: 50.1 µM | IC50 [7]: 15.8 µM | IC50 [8]: 15.8 µM | IC50 (Leishmania donovani [9]): > 50.1 µM | IC50 (Leishmania donovani [10]): 50.1 µM | IC50 (Trypanosoma cruzi [11]): > 50.1 µM | IC50 (Leishmania donovani [12]): 10 µM

CCCC(=O)N(Cc1ccccn1)c1nc2ccccc2s1
IC50 (Trypanosoma cruzi [1]): 0.126 µM | IC50 (Trypanosoma cruzi [2]): 0.0794 µM | IC50 (Leishmania donovani [3]): > 50.1 µM | IC50 [4]: 0.0501 µM | IC50 (NIH3T3): > 50.1 µM | IC50 (Trypanosoma cruzi [5]): 0.1 µM | IC50 at 48 h [6]: > 100 µM | IC50 [7]: 20 µM | IC50 [8]: > 39.8 µM | IC50 (Leishmania donovani [9]): 7.94 µM | IC50 (Leishmania donovani [10]): > 50.1 µM | IC50 (Trypanosoma cruzi [11]): > 50.1 µM | IC50 (Leishmania donovani [12]): 10 µM

O=[N+]([O-])c1ccc(C2=NCCNC(c3ccccc3)=C2)cc1.[O-][Cl+3]([O-])([O-])O
IC50 (Trypanosoma cruzi [1]): 0.501 µM | IC50 (Trypanosoma cruzi [2]): 0.251 µM | IC50 (Leishmania donovani [3]): 39.8 µM | IC50 [4]: 50.1 µM | IC50 (NIH3T3): 7.94 µM | IC50 (Trypanosoma cruzi [5]): 1 µM | IC50 at 48 h [6]: 50.1 µM | IC50 [7]: 6.31 µM | IC50 [8]: > 12.6 µM | IC50 (Leishmania donovani [9]): > 50.1 µM | IC50 (Leishmania donovani [10]): 20 µM | IC50 (Trypanosoma cruzi [11]): 31.6 µM | IC50 (Leishmania donovani [12]): 7.94 µM

Clc1ccc(Sc2cnccc2N2CCOCC2)cc1
IC50 (Trypanosoma cruzi [1]): 0.141 µM | IC50 (Trypanosoma cruzi [2]): 0.1 µM | IC50 (Leishmania donovani [3]): > 50.1 µM | IC50 [4]: 0.0316 µM | IC50 (NIH3T3): > 50.1 µM | IC50 (Trypanosoma cruzi [5]): 0.126 µM | IC50 at 48 h [6]: > 100 µM | IC50 [7]: 25.1 µM | IC50 [8]: > 39.8 µM | IC50 (Leishmania donovani [9]): 7.94 µM | IC50 (Leishmania donovani [10]): > 50.1 µM | IC50 (Trypanosoma cruzi [11]): > 50.1 µM | IC50 (Leishmania donovani [12]): 10 µM
